Measured values published in US8071548B2, “Method of reducing injury to mammalian cells” (Nono, Inc., priority 2002, dated 2011).
Residues, ends and D or L forms follow the SMILES beside them. No end group written: not given here. *: point of attachment. Cbz = O=C(OCc1ccccc1)*

What was measured:
[1] = Physiological variables in post-treatment MCAO study; type: in vivo, Sprague-Dawley rats
Method: Next, I examined whether treatment with Tat-NR2B9c could attenuate ischemic neuronal damage in-vivo when given after stroke onset. […] Infarction volume and neurological outcome measurements were performed at times identical to the pre-treatment study. Body temperature, blood pressure and blood gases were monitored throughout the 24 h experiment and maintained equivalent between groups (Table 2).

[2] = tested on: transient unilateral middle cerebral artery occlusion; conditions: MCAO 90 min
[3] = tested on: cortical neuronal cultures; experiment: Sublethal stretch injury with or without NMDA, cell death in cortical cultures; type: cell-based
Method: […]. In brief, cerebral cortices from 10 to 12 embryos were incubated for 10 min in 0.05% trypsin-EDTA, dissociated by trituration, and plated on flexible membranes coated with poly-L-ornithine in 6 well plates (Flexcell International Corporation, Hillsborough, N.C.) at a density of 3.25×10^6 cells per well. Plating medium consisted of DMEM supplemented with 10% heat-inactivated horse serum (Gibco) and (in mM) 2 glutamine, 25 glucose, and 26 bicarbonate. The cultures were maintained at 37° C. in a humidified 5% CO2 atmosphere. After 3 days in vitro, growth of non-neuronal cells was halted by a 48 h exposure to 10 μM FDU-solution (5 μM uridine, 5 μM (+)-5-fluor-2′-deoxyuridine). This produces cultures in which >85% of the cells are neurons, based on immunohistochemical staining for glial fibrillary associated protein (exclusive to astrocytes), and for the NMDAR1 subunit (not shown). The cultures were used for experiments after 12-14 days in vitro.
The cultures, grown on silastic membranes as above, were placed in the Flexercell® FX-3000™ Strain Unit (Flexcell Int., Inc.), a computer-driven instrument that uses a vacuum pulse to deform the culture substrate. In all experiments, the cortical cultures were stretched to 130% of their original length for 1 s, inducing a sublethal injury as recently characterized by us (Arundine et al., 2003). The stretched neurons maintained cell membrane integrity, viability, and electrophysiological function.
Cell death was determined by serial quantitative measurements of propidium iodide (PI) fluorescence using a multiwell plate fluorescence scanner (Cytofluor II, PerSeptive Biosytems, Framingham, Mass., USA) as described previously (Sattler et al., 1997; Sattler et al., 1998). In brief, the culture medium in each tissue culture well was replaced with control solution containing 50 μg/ml PI, and a baseline fluorescence reading was taken. Sequential readings were then taken at appropriate intervals over the 20 h observation period. The fraction of dead cells in each culture at a given time was calculated as: Fraction dead=(Ft−Fo)/FNMDA Where Ft=PI fluorescence at time t, F0=initial PI fluorescence at time zero and FNMDA=background subtracted PI fluorescence of identical cultures from the same dissection and plating, 20-24 h after a 60 min exposure to 1 mM NMDA at 37° C. Based on manual observations at the time of validation of this technique, this NMDA exposure routinely produced near complete neuronal death in each culture but had no effect on surrounding glia (also see (Bruno et al., 1994; David et al., 1996; Sattler et al., 1997)). Adding Triton X-100 (0.1%) to cultures treated in this manner produced an additional 10-15% increase in PI fluorescence due to permeabilization of non-neuronal cell membranes, consistent with a 10-15% glial component in the cultures.
All experiments were performed at 37° C. Unless otherwise indicated, all solutions contained nimodipine (2 μM) and CNQX (10 μM) to restrict the actions of applied NMDA to NMDARs by preventing the secondary activation of other pathways (Sattler et al., 1998). In general, the cultures were washed ×2 with control solution and immediately stretched to 130% of their original length for 1 s. After the stretch, they were washed ×1 with control solution alone or challenged with an additional treatment (e.g., NMDA) and placed at 37° C. for 1 h. They were then washed ×1 with control solution and then with control solution containing 50 μg/ml PI to obtain a baseline reading. In pilot studies, baseline readings obtained at this stage were similar to those obtained by staining the cells with PI prior to stretch. As the stretch causes splashing of the bath solution, staining with PI after stretch reduced biohazard potential and artifacts associated with PI outside the culture well. Unstretched controls were manipulated identically to stretched cultures.

[4] = Physiological variables in pre-treatment MCAO study; type: in vivo, Sprague-Dawley rats
Method: Next, I examined whether pretreatment with Tat-peptides would reduce stroke damage. Experiments were carried out in adult male Sprague-Dawley rats subjected to transient middle cerebral artery occlusion (MCAO) for 90 minutes by the intraluminal suture method (36,37). Animals were fasted overnight and injected with atropine sulfate (0.5 mg/kg IP). After 10 minutes anesthesia was induced with 3.5% halothane in a mixture of nitrous oxide and oxygen (Vol. 2:1) and maintained with 0.8% halothane. Rats were orally intubated, mechanically ventilated, and paralyzed with pancuronium bromide (0.6 mg/kg IV). Body temperature was maintained at 36.5-37.5° C. with a heating lamp. Polyethylene catheters in the femoral artery and vein were used to continuously record blood pressure and to sample blood for gas and pH measurements. […] This produces an extensive infarction encompassing the cerebral cortex and basal ganglia. […] Physiological parameters (body temperature, blood pressure, blood gases) were monitored and maintained throughout the experiment (Table 1). All experimental manipulations and analyses of data were performed by individuals blinded to the treatment groups. The extent of cerebral infarction was measured 24 h after MCAO onset (FIG. 7C inset). The postural reflex test (38), and the forelimb placing test (39) were used to grade neurological function on a scale of 0 to 12 (normal=0; worst=12) during MCAO (at 50 minutes) and 24 h thereafter.

[5] = tested on: cultured cortical neurons; experiment: NMDA excitotoxicity in cultured cortical neurons (propidium iodide fluorescence); type: cell-based, mouse
[6] = tested on: cortical neuronal cultures; experiment: DNA fragmentation assays (TUNEL, DNA gel electrophoresis); type: cell-based, mouse; conditions: 20 h post-insult; 200 μM MnTBAP or 100 μM L-NAME
Excerpt: DNA fragmentation was examined using the terminal deoxynucleotidyl transferase-mediated end nick labeling (TUNEL) method (Gavrieli et al., 1992; Didenko and Hornsby, 1996; Didenko et al., 1998) and by DNA agarose gel electrophoresis (Hill et al., 2000).
TUNEL Assay: Nuclear DNA strand breaks were detected by enzymatically labeling free 3′-OH termini with modified nucleotides provided in the Apoptag kit (Intergen) using the manufacturer's instructions. Visualization of TUNEL-stained nuclei was achieved using an anti-digoxigenin antibody conjugated to a fluorescein or peroxidase reporter molecule (ApopTag Peroxidase Kits S7110 and S7100, respectively, Intergen). In fluorescence experiments, nuclei were counterstained using 5 ng/ml Hoechst 33258 (1:5000, Transduction Labs), and visualized using 465-495 nm excitation and 515-555 nm emission for fluorescein and 340 nm excitation and 510-40 nm emission for Hoechst. The number of TUNEL positive cells was expressed as a fraction of the total cell number in the field. In each culture, 4-8 random fields were quantified. Approximately 100-200 cells were counted per culture, and at least 3 experiments were performed for each set of counts.
DNA Gel Electrophoresis: DNA laddering was evaluated as described elsewhere (Hill et al., 2000). In brief, all tissue was collected from each culture well and pelleted by centrifugation (1000 rpm; 1 min). The cells were digested for 2 h at 56° C. in buffer containing (in mM) 10 Tris pH 8.0, 2 EDTA pH8, 400 NaCl, 0.5% SDS, 1 mg/ml proteinase K. Digest solution was subjected to phenol/chloroform extraction and total DNA was precipitated from the aqueous layer with an equal volume of 100% ethanol. The DNA pellet was dried, dissolved in 50 μl ddH20 and kept overnight at 4° C. 10 μg DNA was prepared on a 2% agarose gel. Gels were stained with ethidium bromide and photographed.

YGRKKRRQRRRKLSSIEADA [Tat-NR2B-AA, reference compound]
Body Temperature ([1]; After MCAo (15 min)): 36.9 ± 0.23 °C
MABP ([1]; After MCAo (15 min)): 116 ± 4 mmHg
Body Temperature ([1]; After MCAo (24 hr)): 36.7 ± 0.27 °C
Body weight ([1]; After MCAo (24 hr)): 276 ± 6 g
Blood gases PCO2 ([1]; Before MCAo(15 min)): 37.9 ± 1.1 mmHg
Blood gases PH ([1]; Before MCAo(15 min)): 7.45 ± 0.01
Blood gases PO2 ([1]; Before MCAo(15 min)): 113 ± 4 mmHg
Body Temperature ([1]; Before MCAo(15 min)): 36.7 ± 0.07 °C
MABP ([1]; Before MCAo(15 min)): 103 ± 6 mmHg
Body weight ([1]; Before anesthesia): 301 ± 5 g
Blood gases PCO2 ([1]; During MCAo (15 min)): 48.0 ± 1.2 mmHg
Blood gases PH ([1]; During MCAo (15 min)): 7.46 ± 0.01
Blood gases PO2 ([1]; During MCAo (15 min)): 108 ± 2 mmHg
Body Temperature ([1]; During MCAo (15 min)): 36.7 ± 0.11 °C
MABP ([1]; During MCAo (15 min)): 121 ± 5 mmHg
Body Temperature ([1]; During MCAo (60 min)): 37.0 ± 0.31 °C
MABP ([1]; During MCAo (60 min)): 149 ± 4 mmHg
Body Temperature ([1]; During MCAo (65 min)): 37.0 ± 0.29 °C
MABP ([1]; During MCAo (65 min)): 136 ± 5 mmHg
Mean (SE) core temperature during surgery [2]: 37.2 (∀0.2)
Mean (SE) core temperature subsequent to surgery [2]: 37.3 (∀0.1)
Mean (SE) systolic blood pressure during surgery [2]: 109 (∀5.9)
Mean (SE) systolic blood pressure prior to surgery [2]: 113 (∀8.8)
Mean (SE) systolic blood pressure subsequent to surgery [2]: 115 (∀5.9)
Mean (SE) core temperature prior to surgery ([2]; drug i.v. 3 hours after onset of ischemia): 36.9 (∀0.1)
toxic effects in control or stretched cultures ([3]; 50 nM): no toxic effects
Body Temperature ([4]; After MCAo (15 min)): 36.8 ± 0.08 °C
Body Temperature ([4]; After MCAo (24 hr)): 37.0 ± 0.25 °C
Body weight ([4]; After MCAo (24 hr)): 244 ± 6 g
Body Temperature ([4]; Before MCAo(15 min)): 36.6 ± 0.15 °C
MABP ([4]; Before MCAo(15 min)): 115 ± 5 mmHg
Blood gases PCO2 ([4]; Before MCAo(30 min)): 39.1 ± 1.4 mmHg
Blood gases PH ([4]; Before MCAo(30 min)): 7.44 ± 0.02
Blood gases PO2 ([4]; Before MCAo(30 min)): 110 ± 7 mmHg
Body Temperature ([4]; Before MCAo(30 min)): 36.5 ± 0.12 °C
MABP ([4]; Before MCAo(30 min)): 110 ± 4 mmHg
Body Temperature ([4]; Before MCAo(45 min)): 36.7 ± 0.17 °C
MABP ([4]; Before MCAo(45 min)): 115 ± 5 mmHg
Body weight ([4]; Before anesthesia): 273 ± 7 g
Blood gases PCO2 ([4]; During MCAo (5 min)): 39.6 ± 0.5 mmHg
Blood gases PH ([4]; During MCAo (5 min)): 7.44 ± 0.02
Blood gases PO2 ([4]; During MCAo (5 min)): 109 ± 4 mmHg
Body Temperature ([4]; During MCAo (5 min)): 36.6 ± 0.17 °C
MABP ([4]; During MCAo (5 min)): 135 ± 7 mmHg
Body Temperature ([4]; During MCAo (15 min)): 36.7 ± 0.15 °C
MABP ([4]; During MCAo (15 min)): 111 ± 6 mmHg

CC(C)[C@H](NC(=O)OCc1ccccc1)C(=O)N[C@H](C=O)Cc1ccccc1 [Calpain inhibitor III, z-val-phe-CHO] (Cbz-Val-Phe-aldehyde)
heightened vulnerability of stretched neurons to NMDA ([3]; 10 μM): not reduced
toxic effects in control or stretched cultures ([3]; 10 μM): no toxic effects
protection of cells challenged with 30 μM or 1 mM NMDA ([3]; 10 μM, whether or not stretched): slightly protected

COC(=O)[C@@H](N)CCCNC(=N)N[N+](=O)[O-] [L-NAME, N^G-nitro-L-arginine methyl ester]
protection against NMDA toxicity ([5]; cultured cortical neurons): protected
enhanced vulnerability of stretched neurons to NMDA ([3]; 100 μM, 30 min preincubation): completely eliminated the enhanced vulnerability
toxicity of 30 μM NMDA in unstretched neurons ([3]; 100 μM, 30 min preincubation): reduced the toxicity
DNA laddering after stretch followed by NMDA [6]: virtually abolished
TUNEL staining after stretch followed by NMDA [6]: virtually abolished

B1: pTat-GK: Tat fusion protein containing residues 534-724 of PSD-95, guanylate-kinase homology domain; control (protein)
chain: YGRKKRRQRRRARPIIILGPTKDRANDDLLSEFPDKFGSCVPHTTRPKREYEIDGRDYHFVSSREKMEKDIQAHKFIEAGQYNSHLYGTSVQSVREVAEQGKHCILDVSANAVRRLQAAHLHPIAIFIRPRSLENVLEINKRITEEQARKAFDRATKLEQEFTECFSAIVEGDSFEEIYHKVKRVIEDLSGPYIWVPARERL
modifications: left off: small tags and cut ends
notes: Tat fusion protein containing residues 534-724 of PSD-95, guanylate-kinase homology domain; control
NMDA-evoked cell death, pre-treatment ([5]; 50 nM for 1 h, then NMDA 0-100 μM 1 h, 20 h observation): had no effect
enhanced cell mortality in stretched neurons by NMDA challenge, post-treatment ([3]; 50 nM applied after terminating the 1 h NMDA challenge): ineffective
